Reference: ChEMBL document CHEMBL1201862, “PubChem BioAssay data set” (2004)
Active and inactive are the calls of the source.

Assays:
[1] = target: T1, Lysine-specific demethylase 4C (Homo sapiens, UniProt Q9H3R0); assay: inhibition of JMJD2C H3K9me3 demethylation – biochemical, DELFIA europium, cherry-picked samples, dose response (AID 488835); assay type: functional
T1 sequence (Q9H3R0 whole entry): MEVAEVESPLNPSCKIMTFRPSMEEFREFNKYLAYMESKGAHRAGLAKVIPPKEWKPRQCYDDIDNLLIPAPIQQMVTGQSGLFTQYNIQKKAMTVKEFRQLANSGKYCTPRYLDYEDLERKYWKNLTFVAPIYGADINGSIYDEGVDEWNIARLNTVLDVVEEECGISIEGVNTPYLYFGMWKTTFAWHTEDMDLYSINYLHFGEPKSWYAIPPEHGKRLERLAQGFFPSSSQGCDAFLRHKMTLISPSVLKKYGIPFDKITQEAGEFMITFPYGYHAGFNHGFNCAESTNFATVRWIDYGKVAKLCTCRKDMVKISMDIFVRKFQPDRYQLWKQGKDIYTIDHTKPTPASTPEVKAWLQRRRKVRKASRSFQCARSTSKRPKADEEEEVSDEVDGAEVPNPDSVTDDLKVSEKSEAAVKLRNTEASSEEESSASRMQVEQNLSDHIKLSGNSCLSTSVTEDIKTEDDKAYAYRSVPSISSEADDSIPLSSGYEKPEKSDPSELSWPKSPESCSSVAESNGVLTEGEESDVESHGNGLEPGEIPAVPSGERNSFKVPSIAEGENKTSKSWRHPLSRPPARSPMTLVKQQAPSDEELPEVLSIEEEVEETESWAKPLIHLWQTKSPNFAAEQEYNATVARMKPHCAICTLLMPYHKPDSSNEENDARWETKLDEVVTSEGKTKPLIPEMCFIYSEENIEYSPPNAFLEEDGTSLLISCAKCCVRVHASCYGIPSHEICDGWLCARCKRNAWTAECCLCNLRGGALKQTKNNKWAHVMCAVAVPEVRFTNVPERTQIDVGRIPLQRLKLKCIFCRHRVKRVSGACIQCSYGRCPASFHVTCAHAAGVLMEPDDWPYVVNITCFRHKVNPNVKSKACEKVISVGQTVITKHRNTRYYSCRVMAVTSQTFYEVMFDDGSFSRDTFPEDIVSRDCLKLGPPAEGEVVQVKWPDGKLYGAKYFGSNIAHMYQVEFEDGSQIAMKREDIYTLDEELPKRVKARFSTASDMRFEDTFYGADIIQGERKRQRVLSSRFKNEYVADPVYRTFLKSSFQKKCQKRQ

[2] = target: Lysine-specific demethylase 4A (Homo sapiens, UniProt O75164); assay: inhibition of JMJD2A H3K9me3 demethylation – biochemical, DELFIA europium, cherry-picked samples, selectivity assay for GASC-1 inhibitor project, dose response (AID 488840)
[3] = target: Sphingosine 1-phosphate receptor 4 (Homo sapiens, UniProt O95977); assay: Fluorescence dose response cell-based high throughput screening assay for agonists of the Sphingosine 1-Phosphate Receptor 4 (S1P4). [Related pubchem assays: 1509 (Primary screen.), 1523 (Confirmation screen in triplicates.)]; assay type: functional
[4] = target: Sphingosine 1-phosphate receptor 1 (Homo sapiens, UniProt P21453); assay: Fluorescence-based counterscreen assay for S1P4 agonists: Cell-based dose response high throughput screening assay to identify agonists of the Sphingosine 1-Phosphate Receptor 1 (S1P1). [Related pubchem assays (depositor defined):AID1509, AID1523, AID1801, AID463107, AID463118, AID463119, AID463122, AID463123, AID463129, AID463225, AID504400, AID504460]; assay type: functional
[5] = target: Intestinal-type alkaline phosphatase (Homo sapiens, UniProt P09923); assay: activation of human intestinal alkaline phosphatase – biochemical, dose response (AID 488873); assay type: functional
Chain of Intestinal-type alkaline phosphatase (Homo sapiens, UniProt P09923) (P09923 whole entry): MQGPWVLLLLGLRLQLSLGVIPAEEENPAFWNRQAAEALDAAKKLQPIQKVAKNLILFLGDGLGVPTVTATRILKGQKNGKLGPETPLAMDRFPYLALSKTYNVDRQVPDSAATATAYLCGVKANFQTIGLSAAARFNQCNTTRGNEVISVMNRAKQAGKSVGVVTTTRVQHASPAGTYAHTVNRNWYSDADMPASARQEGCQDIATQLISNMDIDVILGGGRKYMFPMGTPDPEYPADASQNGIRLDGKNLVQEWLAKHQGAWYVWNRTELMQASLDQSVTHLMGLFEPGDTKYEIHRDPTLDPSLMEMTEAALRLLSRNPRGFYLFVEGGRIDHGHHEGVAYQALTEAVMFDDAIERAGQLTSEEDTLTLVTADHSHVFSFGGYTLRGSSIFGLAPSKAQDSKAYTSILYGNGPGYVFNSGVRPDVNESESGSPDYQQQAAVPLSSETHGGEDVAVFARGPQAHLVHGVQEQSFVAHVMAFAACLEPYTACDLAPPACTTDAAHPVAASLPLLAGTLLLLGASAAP

[6] = target: T2, Alkaline phosphatase, tissue-nonspecific isozyme (Homo sapiens, UniProt P05186); assay: activation of tissue-nonspecific alkaline phosphatase – biochemical, TNAP isozyme, mouse IAP uHTS hits, selectivity assay for mouse IAP activator project, dose response (AID 488880); assay type: functional
T2 sequence (P05186 whole entry): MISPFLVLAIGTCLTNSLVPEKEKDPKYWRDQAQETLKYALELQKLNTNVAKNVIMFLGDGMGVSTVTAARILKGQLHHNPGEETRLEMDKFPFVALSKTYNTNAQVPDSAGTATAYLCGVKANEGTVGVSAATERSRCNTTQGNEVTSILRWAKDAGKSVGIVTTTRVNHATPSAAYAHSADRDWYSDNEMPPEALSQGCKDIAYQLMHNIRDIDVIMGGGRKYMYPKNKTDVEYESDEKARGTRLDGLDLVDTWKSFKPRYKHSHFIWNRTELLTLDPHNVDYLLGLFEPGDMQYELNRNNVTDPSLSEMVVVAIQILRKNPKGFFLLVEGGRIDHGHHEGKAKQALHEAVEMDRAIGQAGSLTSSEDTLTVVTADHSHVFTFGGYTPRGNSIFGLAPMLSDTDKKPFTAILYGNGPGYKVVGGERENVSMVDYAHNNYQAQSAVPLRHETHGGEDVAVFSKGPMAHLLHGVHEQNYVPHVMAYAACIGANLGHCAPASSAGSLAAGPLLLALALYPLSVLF

NS3 = NS3 (Hepatitis C virus, UniProt A3EZJ3); assay: PubChem AID 2173; set-up: species or system Hepacivirus hominis
[7] = target: 1-phosphatidylinositol 4,5-bisphosphate phosphodiesterase beta-3 (Homo sapiens, UniProt Q01970); assay: Fluorescence-based biochemical high throughput dose response assay to identify inhibitors of phospholipase C isozymes (PLC-B3).
[8] = target: 1-phosphatidylinositol 4,5-bisphosphate phosphodiesterase gamma-1 (Homo sapiens, UniProt P19174); assay: Counterscreen for inhibitors of phospholipase C isozymes (PLC-B3): Fluorescence-based biochemical high throughput dose response assay to identify inhibitors of phospholipase C isozymes (PLC-gamma1).
Chain of 1-phosphatidylinositol 4,5-bisphosphate phosphodiesterase gamma-1 (P19174 whole entry): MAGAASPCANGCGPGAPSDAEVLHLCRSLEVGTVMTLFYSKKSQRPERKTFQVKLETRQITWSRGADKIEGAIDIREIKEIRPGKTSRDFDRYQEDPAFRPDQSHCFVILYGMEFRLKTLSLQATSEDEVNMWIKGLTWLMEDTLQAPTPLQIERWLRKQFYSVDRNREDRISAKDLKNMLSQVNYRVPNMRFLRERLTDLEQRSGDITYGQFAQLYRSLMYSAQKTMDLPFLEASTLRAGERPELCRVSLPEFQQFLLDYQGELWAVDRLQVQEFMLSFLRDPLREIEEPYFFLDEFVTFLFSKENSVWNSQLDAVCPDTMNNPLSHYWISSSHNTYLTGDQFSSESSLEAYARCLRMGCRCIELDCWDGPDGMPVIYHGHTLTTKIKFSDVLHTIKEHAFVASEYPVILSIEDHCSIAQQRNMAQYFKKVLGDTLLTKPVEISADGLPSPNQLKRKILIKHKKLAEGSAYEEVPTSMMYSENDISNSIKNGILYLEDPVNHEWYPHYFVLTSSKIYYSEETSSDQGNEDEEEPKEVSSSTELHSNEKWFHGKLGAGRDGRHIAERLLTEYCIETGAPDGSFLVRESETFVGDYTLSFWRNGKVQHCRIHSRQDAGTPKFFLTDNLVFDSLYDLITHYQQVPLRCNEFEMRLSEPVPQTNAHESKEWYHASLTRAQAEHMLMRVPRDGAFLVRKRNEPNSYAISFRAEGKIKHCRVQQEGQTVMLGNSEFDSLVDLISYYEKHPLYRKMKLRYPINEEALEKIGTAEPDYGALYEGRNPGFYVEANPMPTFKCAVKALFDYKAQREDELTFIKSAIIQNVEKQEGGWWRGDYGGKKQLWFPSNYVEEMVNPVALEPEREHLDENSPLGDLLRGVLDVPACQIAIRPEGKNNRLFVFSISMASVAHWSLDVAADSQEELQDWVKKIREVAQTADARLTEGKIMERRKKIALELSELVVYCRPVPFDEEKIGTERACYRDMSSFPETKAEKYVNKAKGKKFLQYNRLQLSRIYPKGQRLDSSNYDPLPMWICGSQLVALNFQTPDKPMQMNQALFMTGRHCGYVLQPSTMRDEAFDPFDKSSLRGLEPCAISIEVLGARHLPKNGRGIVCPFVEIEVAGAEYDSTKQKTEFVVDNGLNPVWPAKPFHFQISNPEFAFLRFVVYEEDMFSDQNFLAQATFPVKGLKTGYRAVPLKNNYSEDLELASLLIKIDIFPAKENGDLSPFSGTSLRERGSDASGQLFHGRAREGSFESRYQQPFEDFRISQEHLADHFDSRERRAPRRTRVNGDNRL

[9] = target: Induced myeloid leukemia cell differentiation protein Mcl-1 (Homo sapiens, UniProt Q07820); assay type: functional
Chain of Induced myeloid leukemia cell differentiation protein Mcl-1 (Q07820 whole entry): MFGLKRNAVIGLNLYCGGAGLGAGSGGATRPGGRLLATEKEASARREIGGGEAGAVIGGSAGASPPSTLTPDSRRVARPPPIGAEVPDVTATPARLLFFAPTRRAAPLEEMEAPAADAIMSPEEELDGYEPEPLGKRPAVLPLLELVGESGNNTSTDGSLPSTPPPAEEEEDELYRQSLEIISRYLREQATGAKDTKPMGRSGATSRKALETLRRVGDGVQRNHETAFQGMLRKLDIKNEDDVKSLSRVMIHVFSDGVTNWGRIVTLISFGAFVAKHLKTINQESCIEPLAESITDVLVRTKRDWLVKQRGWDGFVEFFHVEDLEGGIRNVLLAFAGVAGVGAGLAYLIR

[10] = target: Intestinal-type alkaline phosphatase (Mus musculus, UniProt P24822); assay: mouse intestinal alkaline phosphatase activators, dose response, biochemical, luminescence, uHTS hits (AID 488783); assay type: functional
Chain of Intestinal-type alkaline phosphatase (Mus musculus, UniProt P24822) (P24822 whole entry): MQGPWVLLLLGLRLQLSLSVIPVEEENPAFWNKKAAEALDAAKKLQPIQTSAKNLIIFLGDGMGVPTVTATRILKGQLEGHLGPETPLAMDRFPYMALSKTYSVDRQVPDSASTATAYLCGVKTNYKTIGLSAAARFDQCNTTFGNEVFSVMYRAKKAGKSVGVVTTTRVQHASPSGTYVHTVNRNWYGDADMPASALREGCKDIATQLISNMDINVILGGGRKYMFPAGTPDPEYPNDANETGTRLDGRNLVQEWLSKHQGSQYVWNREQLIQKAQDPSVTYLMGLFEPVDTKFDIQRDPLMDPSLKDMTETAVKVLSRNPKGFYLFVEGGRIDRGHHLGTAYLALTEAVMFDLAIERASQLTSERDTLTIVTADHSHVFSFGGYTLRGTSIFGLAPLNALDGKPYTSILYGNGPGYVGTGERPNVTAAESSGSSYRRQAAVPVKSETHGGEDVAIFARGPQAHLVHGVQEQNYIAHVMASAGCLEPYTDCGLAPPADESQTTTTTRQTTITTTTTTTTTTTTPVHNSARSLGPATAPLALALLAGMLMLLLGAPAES

Mucolipin-3 = Mucolipin-3 (Homo sapiens, UniProt Q8TDD5); assay: Fluorescence counterscreen assay for […] agonists: dose response cell-based high-throughput screening assay to identify agonists of the transient receptor potential channel ML3 (TRPML3). [Related pubchem assays: 1424, 1448 ]; assay type: functional
Chain of Mucolipin-3 (Q8TDD5 whole entry): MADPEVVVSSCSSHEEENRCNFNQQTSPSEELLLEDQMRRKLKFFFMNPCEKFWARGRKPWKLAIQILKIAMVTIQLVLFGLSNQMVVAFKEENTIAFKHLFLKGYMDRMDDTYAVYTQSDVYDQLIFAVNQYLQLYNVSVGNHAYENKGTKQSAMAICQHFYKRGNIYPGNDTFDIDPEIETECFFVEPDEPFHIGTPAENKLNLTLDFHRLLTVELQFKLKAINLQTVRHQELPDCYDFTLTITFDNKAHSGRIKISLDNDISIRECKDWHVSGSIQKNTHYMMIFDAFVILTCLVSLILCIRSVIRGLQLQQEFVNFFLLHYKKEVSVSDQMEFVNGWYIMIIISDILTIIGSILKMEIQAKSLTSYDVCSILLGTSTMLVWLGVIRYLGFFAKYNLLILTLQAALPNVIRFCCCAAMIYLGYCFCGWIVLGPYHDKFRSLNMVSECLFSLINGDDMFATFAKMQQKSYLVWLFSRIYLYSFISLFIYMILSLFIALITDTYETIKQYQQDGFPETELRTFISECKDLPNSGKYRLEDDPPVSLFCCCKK

[11] = target: T3, High affinity choline transporter 1 (Homo sapiens, UniProt Q9GZV3); assay: human choline transporter blockers, potency – cell-based, 5-point CRC, membrane potential dye, dose response (AID 504840); assay type: functional
T3 sequence (Q9GZV3 whole entry): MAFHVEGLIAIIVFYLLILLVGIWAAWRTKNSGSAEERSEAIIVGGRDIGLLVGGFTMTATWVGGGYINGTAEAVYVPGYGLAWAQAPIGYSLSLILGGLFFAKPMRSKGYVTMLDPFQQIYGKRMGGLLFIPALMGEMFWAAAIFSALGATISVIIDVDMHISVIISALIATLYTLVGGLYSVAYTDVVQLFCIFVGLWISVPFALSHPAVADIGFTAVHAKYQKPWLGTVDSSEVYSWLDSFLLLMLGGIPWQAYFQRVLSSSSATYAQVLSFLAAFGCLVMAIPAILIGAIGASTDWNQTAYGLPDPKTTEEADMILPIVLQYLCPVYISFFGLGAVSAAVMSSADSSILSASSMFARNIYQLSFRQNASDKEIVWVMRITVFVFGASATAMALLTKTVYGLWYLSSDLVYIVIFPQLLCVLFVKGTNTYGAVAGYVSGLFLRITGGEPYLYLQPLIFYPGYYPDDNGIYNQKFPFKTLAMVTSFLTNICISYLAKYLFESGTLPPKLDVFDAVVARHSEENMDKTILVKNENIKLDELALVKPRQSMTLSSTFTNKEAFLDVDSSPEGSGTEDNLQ

Ion channel NompC = Ion channel NompC (Danio rerio, UniProt Q7T1G6); assay: Dose response cell-based high-throughput screening assay for agonists of the transient receptor potential channel N1 (TRPN1). [Related pubchem assays (depositor defined):AID1424, AID1448]; assay type: functional
Chain of Ion channel NompC (Q7T1G6 whole entry): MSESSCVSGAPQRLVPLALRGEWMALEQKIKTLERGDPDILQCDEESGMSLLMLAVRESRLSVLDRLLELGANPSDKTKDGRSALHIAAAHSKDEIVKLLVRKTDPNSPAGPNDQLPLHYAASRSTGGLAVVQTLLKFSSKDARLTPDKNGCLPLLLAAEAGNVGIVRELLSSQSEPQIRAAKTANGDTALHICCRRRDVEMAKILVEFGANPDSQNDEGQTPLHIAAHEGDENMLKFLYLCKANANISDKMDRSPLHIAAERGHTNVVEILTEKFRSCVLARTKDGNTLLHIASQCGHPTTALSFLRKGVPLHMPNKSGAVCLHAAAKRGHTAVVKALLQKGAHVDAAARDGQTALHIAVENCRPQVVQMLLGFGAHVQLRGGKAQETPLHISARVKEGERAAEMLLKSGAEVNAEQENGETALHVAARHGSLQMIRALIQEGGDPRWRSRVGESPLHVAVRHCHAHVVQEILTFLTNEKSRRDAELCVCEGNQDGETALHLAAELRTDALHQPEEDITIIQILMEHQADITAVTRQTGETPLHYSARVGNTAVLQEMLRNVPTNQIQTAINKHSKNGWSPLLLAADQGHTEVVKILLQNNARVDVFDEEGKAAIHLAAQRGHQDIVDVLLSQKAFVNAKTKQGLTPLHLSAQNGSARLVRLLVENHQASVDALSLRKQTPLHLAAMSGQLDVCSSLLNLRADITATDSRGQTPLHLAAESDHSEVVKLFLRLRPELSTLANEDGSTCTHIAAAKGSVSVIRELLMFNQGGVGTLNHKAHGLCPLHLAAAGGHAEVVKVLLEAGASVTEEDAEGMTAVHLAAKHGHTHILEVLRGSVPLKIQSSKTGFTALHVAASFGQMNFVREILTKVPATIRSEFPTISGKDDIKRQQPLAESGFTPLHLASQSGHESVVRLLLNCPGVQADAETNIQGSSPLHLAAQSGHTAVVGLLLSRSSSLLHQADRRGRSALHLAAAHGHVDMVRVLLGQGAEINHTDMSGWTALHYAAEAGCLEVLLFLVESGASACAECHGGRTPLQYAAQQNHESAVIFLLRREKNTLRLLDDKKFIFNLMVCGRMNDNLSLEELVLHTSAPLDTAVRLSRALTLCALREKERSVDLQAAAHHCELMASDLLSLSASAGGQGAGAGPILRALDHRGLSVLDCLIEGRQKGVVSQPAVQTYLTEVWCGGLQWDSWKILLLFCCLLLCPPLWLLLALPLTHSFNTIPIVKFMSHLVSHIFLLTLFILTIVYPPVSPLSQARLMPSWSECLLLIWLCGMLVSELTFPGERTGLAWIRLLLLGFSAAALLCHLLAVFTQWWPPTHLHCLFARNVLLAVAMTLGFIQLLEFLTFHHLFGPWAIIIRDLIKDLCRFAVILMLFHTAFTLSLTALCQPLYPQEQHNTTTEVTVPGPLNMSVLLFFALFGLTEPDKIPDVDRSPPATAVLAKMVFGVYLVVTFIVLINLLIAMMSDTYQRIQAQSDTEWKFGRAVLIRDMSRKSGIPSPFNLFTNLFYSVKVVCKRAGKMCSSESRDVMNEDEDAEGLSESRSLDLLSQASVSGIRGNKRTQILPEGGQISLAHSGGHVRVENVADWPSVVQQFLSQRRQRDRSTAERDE

CCCCOc1ccc(CC2C(=O)N(C)C(=O)N(C)C2=O)cc1
AC50 [1]: 1.76 µM (active) | AC50 [2]: 12.5 µM (active)

NC(=S)c1cc2ccc(O)cc2oc1=O
EC50 [3]: 7.68 µM (active) | EC50 [4]: 52.9 µM (inactive)

O=C1/C(=C/C=C/c2ccco2)SC(=S)N1c1ccc(O)cc1
EC50 [5]: 84.7 µM (active) | EC50 [6]: 91.3 µM (active) | IC50 (NS3): 5.35 µM (active) | IC50 [7]: > 123 µM (inactive) | IC50 [8]: > 123 µM (inactive) | IC50 [9]: 1.72 µM (active) | EC50 [10]: 59 µM (active)

CC(C)(C)S(=O)(=O)/C(C#N)=N/Nc1ccc(Cl)cc1
EC50 (Mucolipin-3): > 29.9 µM (not active) | IC50 [11]: 1.32 µM (active) | EC50 (Ion channel NompC): > 29.9 µM (inactive)
